# ChEMBL document CHEMBL5214908, “Small Scorpion-like Peptidomimetics: Potential Broad-Spectrum Membrane Active Antimicrobials without Detectable Resistance” (J Med Chem, 2021)
# Key:
# Enterococcus faecium = assay: Antibacterial activity against vancomycin-resistant Enterococcus faecium assessed as reduction in bacterial growth; format: functional
# Staphylococcus aureus [1] = assay: In vivo antibacterial activity against methicillin-resistant Staphylococcus aureus infected in murine assessed as log reduction in bacterial burden; format: functional; set-up: scale not given: the % may be the effect or the level left
# [2] = tested on: Staphylococcus epidermidis; assay: Antibacterial activity against methicillin-resistant Staphylococcus epidermidis assessed as reduction in bacterial growth; format: functional
# Pseudomonas aeruginosa = assay: Antibacterial activity against Pseudomonas aeruginosa assessed as reduction in bacterial growth; format: functional
# Escherichia coli = assay: Antibacterial activity against Escherichia coli assessed as reduction in bacterial growth; format: functional
# Staphylococcus aureus [3] = assay: Antibacterial activity against methicillin-resistant Staphylococcus aureus assessed as reduction in bacterial growth; format: functional
# Klebsiella pneumoniae = assay: Antibacterial activity against Klebsiella pneumoniae assessed as reduction in bacterial growth; format: functional
# [4] = Hemolytic activity in human RBC; format: toxicity, cell-based, Erythrocyte; details: human red blood cells (erythrocytes)
Structure (SMILES),MIC (Enterococcus faecium) [µg/mL],Activity (Staphylococcus aureus [1]) [%],MIC [2] [µg/mL],MIC (Pseudomonas aeruginosa) [µg/mL],MIC (Escherichia coli) [µg/mL],MIC (Staphylococcus aureus [3]) [µg/mL],MIC (Klebsiella pneumoniae) [µg/mL],HC50 [4] [µg/mL]
NCCCC[C@H](N)CN(CC(=O)Nc1cc(NC(=O)CN(C[C@@H](N)CCCCN)C(=O)CC23CC4CC(CC(C4)C2)C3)cc(C(=O)NCCNC(=O)CC23CC4CC(CC(C4)C2)C3)c1)C(=O)CC12CC3CC(CC(C3)C1)C2,2,99.998,2,2,2,2,2,250
CCCCCCCCCNC(=O)[C@H](CCCCN)NC(=O)c1ccc(C(=O)N[C@@H](CCCCN)C(=O)NCCCCCCCCC)cc1,–,–,–,–,–,0.75,–,180
